According to PubChem BioAssay AID292 (DTP/NCI, 2004):
Values joined by “and” are separate entries in the source; they are usually repeats but may differ in a detail not shown here. Equal entries are not always repeated. Inconclusive results and toxic doses are left out.

Tested on: B6C3F1 mice, ip Sarcoma M5076, median survival T/C
Assay: NCI In Vivo Anticancer Drug Screen. Data for tumor model Sarcoma M5076 (intraperitoneal) in B6C3F1 mice
Conditions: endpoint: median survival time, higher = longer survival
Experimental: The antitumor activity of compounds was measured in mice bearing transplantable tumors. Survival or tumor size were measured and the results are expressed as the measurement made in the treated group (T) divided by the measurement made in the vehicle treated control group (C). The tumor model used in this assay is Sarcoma M5076 (intraperitoneal) in B6C3F1 mice

[1] = dose: 50.0 mg/kg/injection, schedule: Q04DX004 (ip), vehicle: other
[2] = dose: 50.0 mg/kg/injection, schedule: Q04DX004 (ip), vehicle: saline with Tween-80
[3] = dose: 100.0 mg/kg/injection, schedule: Q04DX004 (ip), vehicle: saline with Tween-80
[4] = dose: 25.0 mg/kg/injection, schedule: Q04DX004 (ip), vehicle: Klucel (hydroxypropylcellulose) (HPC)
[5] = dose: 50.0 mg/kg/injection, schedule: Q04DX004 (ip), vehicle: Klucel (hydroxypropylcellulose) (HPC)
[6] = dose: 37.5 mg/kg/injection, schedule: Q04DX004 (ip), vehicle: Klucel (hydroxypropylcellulose) (HPC)
[7] = dose: 75.0 mg/kg/injection, schedule: Q04DX004 (ip), vehicle: Klucel (hydroxypropylcellulose) (HPC)
[8] = dose: 150.0 mg/kg/injection, schedule: Q04DX004 (ip), vehicle: Klucel (hydroxypropylcellulose) (HPC)
[9] = dose: 300.0 mg/kg/injection, schedule: Q04DX004 (ip), vehicle: Klucel (hydroxypropylcellulose) (HPC)
[10] = dose: 100.0 mg/kg/injection, schedule: Q04DX004 (ip), vehicle: Klucel (hydroxypropylcellulose) (HPC)
[11] = dose: 200.0 mg/kg/injection, schedule: Q04DX004 (ip), vehicle: Klucel (hydroxypropylcellulose) (HPC)
[12] = dose: 400.0 mg/kg/injection, schedule: Q04DX004 (ip), vehicle: Klucel (hydroxypropylcellulose) (HPC)

With N=C(N)c1nn(C2OC(CO)C(O)C2O)c2nc[nH]c(=O)c12 (centres undefined) the T/C (dose: 6.25 mg/kg/injection, schedule: Q04DX004 (ip), vehicle: Klucel + Tween-80) was 123 % of control, the T/C (dose: 12.5 mg/kg/injection, schedule: Q04DX004 (ip), vehicle: Klucel + Tween-80) was 109 % of control and the T/C (dose: 18.0 mg/kg/injection, schedule: Q04DX004 (ip), vehicle: other) was 106 % of control. For the same compound, the T/C (dose: 22.0 mg/kg/injection, schedule: Q04DX004 (ip), vehicle: Klucel + Tween-80) was 112 % of control, the T/C (dose: 30.0 mg/kg/injection, schedule: Q04DX004 (ip), vehicle: other) was 107 % of control and the T/C (dose: 36.0 mg/kg/injection, schedule: Q04DX004 (ip), vehicle: Klucel + Tween-80) was 120 % of control. The T/C [1] was 105 % of control, the T/C (dose: 60.0 mg/kg/injection, schedule: Q04DX004 (ip), vehicle: Klucel + Tween-80) was 117 % of control and the T/C (dose: 83.33 mg/kg/injection, schedule: Q04DX004 (ip), vehicle: other) was 105 % of control. For the same compound, the T/C (dose: 101.0 mg/kg/injection, schedule: Q04DX004 (ip), vehicle: Klucel + Tween-80) was 117 % of control.

For Clc1cc2c(nn1)Nc1ccccc1S2, the T/C [2] was 100 % of control, the T/C [3] was 95 % of control and the T/C (dose: 200.0 mg/kg/injection, schedule: Q04DX004 (ip), vehicle: saline with Tween-80) was 95 % of control.

Nc1ccc2c(c1)CN1C(=O)c3ccccc3C1=N2 was tested, and the T/C (dose: 25.0 mg/kg/injection, schedule: Q04DX004 (ip), vehicle: saline with Tween-80) was 104 % of control, the T/C [2] was 110 % of control and the T/C [3] was 116 % of control.

CCCCCn1c(C)cc(/C=C\c2ccc3cc(C)ccc3[n+]2C)c1C was tested, and the T/C (dose: 1.0 mg/kg/injection, schedule: Q04DX004 (ip), vehicle: saline) was 103 % of control, the T/C (dose: 2.0 mg/kg/injection, schedule: Q04DX004 (ip), vehicle: saline) was 111 % of control and the T/C (dose: 4.0 mg/kg/injection, schedule: Q04DX004 (ip), vehicle: saline) was 111 % of control. For the same compound, the T/C (dose: 8.0 mg/kg/injection, schedule: Q04DX004 (ip), vehicle: saline) was 114 % of control.

In the case of NC(=O)c1ccc[n+](Cc2c(Cl)cccc2Cl)c1, the T/C (dose: 12.5 mg/kg/injection, schedule: Q04DX004 (ip), vehicle: saline) was 100 % of control, the T/C (dose: 25.0 mg/kg/injection, schedule: Q04DX004 (ip), vehicle: saline) was 99 % of control and the T/C (dose: 50.0 mg/kg/injection, schedule: Q04DX004 (ip), vehicle: saline) was 100 % of control. For the same compound, the T/C (dose: 100.0 mg/kg/injection, schedule: Q04DX004 (ip), vehicle: saline) was 96 % of control.

For CNc1nc(N(C)C)nc(N(C)C)n1, the T/C (dose: 25.0 mg/kg/injection, schedule: Q04DX004 (ip), vehicle: suspension in saline) was 92 % of control and 100 % of control, the T/C (dose: 50.0 mg/kg/injection, schedule: Q04DX004 (ip), vehicle: suspension in saline) was 102 % of control and 109 % of control and the T/C (dose: 100.0 mg/kg/injection, schedule: Q04DX004 (ip), vehicle: suspension in saline) was 113 % of control and 114 % of control. For the same compound, the T/C (dose: 200.0 mg/kg/injection, schedule: Q04DX004 (ip), vehicle: suspension in saline) was 117 % of control and 120 % of control.

For N#Cc1c(-c2ccccc2)c(-c2ccccc2)nn(CC(=O)O)c1=O, the T/C (dose: 50.0 mg/kg/injection, schedule: Q04DX004 (ip), vehicle: distilled water + Tween-80) was 102 % of control, the T/C (dose: 100.0 mg/kg/injection, schedule: Q04DX004 (ip), vehicle: distilled water + Tween-80) was 102 % of control and the T/C (dose: 200.0 mg/kg/injection, schedule: Q04DX004 (ip), vehicle: distilled water + Tween-80) was 97 % of control.

O=C1C=CC2OC(c3ccccc3)C(O)C2O1 (centres undefined) was tested, and the T/C (dose: 6.25 mg/kg/injection, schedule: Q04DX004 (ip), vehicle: DMSO) was 105 % of control, the T/C (dose: 12.5 mg/kg/injection, schedule: Q04DX004 (ip), vehicle: DMSO) was 107 % of control and the T/C (dose: 25.0 mg/kg/injection, schedule: Q04DX004 (ip), vehicle: DMSO) was 112 % of control. The T/C (dose: 50.0 mg/kg/injection, schedule: Q04DX004 (ip), vehicle: DMSO) was 107 % of control.

With O=C(NNC(=O)c1cccc(C(=O)NNC(=O)c2ccc(Cl)c(Cl)c2)n1)c1ccc(Cl)c(Cl)c1 the T/C [4] was 102 % of control and the T/C [5] was 96 % of control.

For Cc1cc(C(F)(F)F)nc2nc3ccccc3n12, the T/C [6] was 100 % of control, the T/C [7] was 95 % of control and the T/C [8] was 96 % of control. The T/C [9] was 95 % of control.

With COc1cc(C(=O)c2cc3c(cc2C)OCO3)cc(OC)c1OC the T/C (dose: 3.75 mg/kg/injection, schedule: Q04DX004 (ip), vehicle: Klucel (hydroxypropylcellulose) (HPC)) was 97 % of control, the T/C (dose: 7.5 mg/kg/injection, schedule: Q04DX004 (ip), vehicle: Klucel (hydroxypropylcellulose) (HPC)) was 109 % of control and the T/C (dose: 15.0 mg/kg/injection, schedule: Q04DX004 (ip), vehicle: Klucel (hydroxypropylcellulose) (HPC)) was 104 % of control. For the same compound, the T/C (dose: 30.0 mg/kg/injection, schedule: Q04DX004 (ip), vehicle: Klucel (hydroxypropylcellulose) (HPC)) was 105 % of control, the T/C [6] was 110 % of control and the T/C (dose: 60.0 mg/kg/injection, schedule: Q04DX004 (ip), vehicle: Klucel (hydroxypropylcellulose) (HPC)) was 100 % of control. For the same compound, the T/C [7] was 108 % of control and 114 % of control, the T/C [8] was 113 % of control and 116 % of control and the T/C [9] was 107 % of control.

For CCN1CCC(=C(c2ccccc2)c2ccccc2)C1, the T/C (dose: 18.75 mg/kg/injection, schedule: Q04DX004 (ip), vehicle: Klucel (hydroxypropylcellulose) (HPC)) was 105 % of control and the T/C [6] was 99 % of control.

O=C1c2ccccc2C(=O)c2c1cn1c2Cc2ccccc2C1 was tested, and the T/C [4] was 90 % of control, the T/C (dose: 25.0 mg/kg/injection, schedule: Q04DX004 (ip), vehicle: other) was 96 % of control and 102 % of control and the T/C [5] was 91 % of control and 93 % of control. For the same compound, the T/C [1] was 96 % of control and 103 % of control, the T/C [10] was 90 % of control and the T/C (dose: 100.0 mg/kg/injection, schedule: Q04DX004 (ip), vehicle: other) was 106 % of control. The T/C (dose: 150.0 mg/kg/injection, schedule: Q04DX004 (ip), vehicle: other) was 93 % of control, the T/C [11] was 88 % of control and the T/C (dose: 200.0 mg/kg/injection, schedule: Q04DX004 (ip), vehicle: other) was 97 % of control. The T/C [12] was 89 % of control and 95 % of control.

For [N-]=[N+]=NCCOCn1ccc(=O)[nH]c1=O, the T/C (dose: 37.5 mg/kg/injection, schedule: Q04DX004 (ip), vehicle: suspension in saline) was 102 % of control, the T/C (dose: 75.0 mg/kg/injection, schedule: Q04DX004 (ip), vehicle: suspension in saline) was 107 % of control and the T/C (dose: 150.0 mg/kg/injection, schedule: Q04DX004 (ip), vehicle: suspension in saline) was 109 % of control. The T/C (dose: 300.0 mg/kg/injection, schedule: Q04DX004 (ip), vehicle: suspension in saline) was 103 % of control and the T/C (dose: 600.0 mg/kg/injection, schedule: Q04DX004 (ip), vehicle: suspension in saline) was 98 % of control.

In the case of CC(O)CCC(=O)c1ccoc1 (centres undefined), the T/C (dose: 1.25 mg/kg/injection, schedule: Q03HX012 (ip), vehicle: saline) was 105 % of control, the T/C (dose: 2.5 mg/kg/injection, schedule: Q03HX012 (ip), vehicle: saline) was 95 % of control and the T/C (dose: 5.0 mg/kg/injection, schedule: Q03HX012 (ip), vehicle: saline) was 88 % of control. For the same compound, the T/C (dose: 10.0 mg/kg/injection, schedule: Q03HX012 (ip), vehicle: saline) was 100 % of control.

With CN1C(=O)OC(c2ccc(Cl)cc2)C1=O (centres undefined) the T/C [5] was 92 % of control, the T/C [10] was 93 % of control and the T/C [11] was 94 % of control. The T/C [12] was 97 % of control.

In the case of CN(C)N=Nc1ccccc1, the T/C (dose: 12.5 mg/kg/injection, schedule: Q04DX004 (ip), vehicle: Klucel (hydroxypropylcellulose) (HPC)) was 113 % of control, the T/C [4] was 159 % of control and the T/C [5] was 187 % of control. For the same compound, the T/C [10] was 156 % of control.

For O=CC(O)C(O)C(O)C(O)CO (centres undefined), the T/C (dose: 75.0 mg/kg/injection, schedule: Q04DX004 (ip), vehicle: saline) was 93 % of control, the T/C (dose: 150.0 mg/kg/injection, schedule: Q04DX004 (ip), vehicle: saline) was 96 % of control and the T/C (dose: 300.0 mg/kg/injection, schedule: Q04DX004 (ip), vehicle: saline) was 96 % of control. The T/C (dose: 600.0 mg/kg/injection, schedule: Q04DX004 (ip), vehicle: saline) was 98 % of control and the T/C (dose: 1200.0 mg/kg/injection, schedule: Q04DX004 (ip), vehicle: saline) was 93 % of control.
